Experimental data as given in ChEMBL document CHEMBL4118053, “Antimicrobial Spirotetronate Metabolites from Marine-Derived Micromonospora harpali SCSIO GJ089” (2017).
≈ marks a conversion by molar mass, not a printed value.

Legend:
Type in all cases: functional
Enterococcus faecalis = assay: Antibacterial activity against Enterococcus faecalis ATCC 29212 by CLSI method
Bacillus subtilis = assay: Antibacterial activity against Bacillus subtilis BS01 by CLSI method
Staphylococcus aureus [1] = assay: Antibacterial activity against methicillin-resistant Staphylococcus aureus isolate shhs-A1 by CLSI method
Bacillus thuringiensis = assay: Antibacterial activity against Bacillus thuringiensis BT01 by CLSI method
Staphylococcus aureus [2] = assay: Antibacterial activity against Staphylococcus aureus ATCC 29213 by CLSI method

| Compound | MIC (Enterococcus faecalis) [µg/mL] | MIC (Bacillus subtilis) [µg/mL] | MIC (Staphylococcus aureus [1]) [µg/mL] | MIC (Bacillus thuringiensis) [µg/mL] | MIC (Staphylococcus aureus [2]) [µg/mL] |
| --- | --- | --- | --- | --- | --- |
| COC(=O)N[C@H]1[C@@H](C)O[C@@H](O[C@H]2C/C=C(\C)[C@@H]3C=C[C@@H]4[C@@H](O[C@H]5C[C@@H](O[C@H]6CC[C@@H](O[C@@H]7C[C@@H](O)[C@@H](O[C@H]8CC[C@@H](O)[C@H](C)O8)[C@H](C)O7)[C@H](C)O6)[C@@H](OC(C)=O)[C@H](C)O5)[C@@H](C)C[C@H](C)[C@H]4[C@]3(C)C(=O)C3=C(O)[C@@]4(CC(/C=C/C(C)=O)=C[C@H](O)[C@H]4/C=C/2C)OC3=O)C[C@]1(C)N | > 128 | 2 (≈ 1.51 µM) | > 128 | 1 (≈ 0.756 µM) | > 128 |
| COC(=O)N[C@H]1[C@@H](C)O[C@@H](O[C@H]2C/C=C(\C)[C@@H]3C=C[C@@H]4[C@@H](O[C@H]5C[C@@H](O[C@H]6CC[C@@H](O[C@@H]7C[C@@H](O)[C@@H](O[C@H]8CC[C@@H](O)[C@H](C)O8)[C@H](C)O7)[C@H](C)O6)[C@@H](OC(C)=O)[C@H](C)O5)[C@@H](C)C[C@H](C)[C@H]4[C@]3(C)C(=O)C3=C(O)[C@@]4(CC(C=O)=C[C@H](O)[C@H]4/C=C/2C)OC3=O)C[C@]1(C)[N+](=O)[O-] | 64 (≈ 48.7 µM) | 0.03 (≈ 0.0228 µM) | 32 (≈ 24.4 µM) | 0.016 (≈ 0.0122 µM) | 32 (≈ 24.4 µM) |
| NC[C@H]1O[C@H](O[C@H]2[C@H](O)[C@@H](O[C@H]3O[C@H](CO)[C@@H](O)[C@H](N)[C@H]3O)[C@H](N)C[C@@H]2N)[C@H](O)[C@@H](O)[C@@H]1O [KANAMYCIN] | 32 (≈ 66 µM) | 8 (≈ 16.5 µM) | 64 (≈ 132 µM) | 8 (≈ 16.5 µM) | 16 (≈ 33 µM) |
| COC(=O)N[C@H]1[C@@H](C)O[C@@H](O[C@H]2C/C=C(\C)[C@@H]3C=C[C@@H]4[C@@H](O[C@H]5C[C@@H](O[C@H]6CC[C@@H](O[C@@H]7C[C@@H](O)[C@@H](O)[C@H](C)O7)[C@H](C)O6)[C@@H](OC(C)=O)[C@H](C)O5)[C@@H](C)C[C@H](C)[C@H]4[C@]3(C)C(=O)C3=C(O)[C@@]4(CC(C=O)=C[C@H](O)[C@H]4/C=C/2C)OC3=O)C[C@]1(C)[N+](=O)[O-] | 64 (≈ 53.4 µM) | 0.063 (≈ 0.0525 µM) | 32 (≈ 26.7 µM) | 0.063 (≈ 0.0525 µM) | 32 (≈ 26.7 µM) |
| COC(=O)N[C@H]1[C@@H](C)O[C@@H](O[C@H]2C/C=C(\C)[C@@H]3C=C[C@@H]4[C@@H](O[C@H]5C[C@@H](O[C@H]6CC[C@@H](O[C@@H]7C[C@@H](O)[C@@H](O[C@H]8CC[C@@H](O)[C@H](C)O8)[C@H](C)O7)[C@H](C)O6)[C@@H](OC(C)=O)[C@H](C)O5)[C@@H](C)C[C@H](C)[C@H]4[C@]3(C)C(=O)C3=C(O)[C@@]4(CC(C=O)=C[C@H](O)[C@H]4/C=C/2C)OC3=O)C[C@]1(C)N | > 128 | 2 (≈ 1.56 µM) | > 128 | 1 (≈ 0.779 µM) | > 128 |
| CN[C@H](CC(C)C)C(=O)N[C@H]1C(=O)N[C@@H](CC(N)=O)C(=O)N[C@H]2C(=O)N[C@H]3C(=O)N[C@H](C(=O)N[C@H](C(=O)O)c4cc(O)cc(O)c4-c4cc3ccc4O)[C@H](O)c3ccc(c(Cl)c3)Oc3cc2cc(c3O[C@@H]2O[C@H](CO)[C@@H](O)[C@H](O)[C@H]2O[C@H]2C[C@](C)(N)[C@H](O)[C@H](C)O2)Oc2ccc(cc2Cl)[C@H]1O [VANCOMYCIN] |  | 1 (≈ 0.69 µM) |  | 2 (≈ 1.38 µM) |  |
| COC(=O)N[C@H]1[C@@H](C)O[C@@H](O[C@H]2C/C=C(\C)[C@@H]3C=C[C@@H]4[C@@H](O[C@H]5C[C@@H](O[C@H]6CC[C@@H](O[C@@H]7C[C@@H](O)[C@@H](O)[C@H](C)O7)[C@H](C)O6)[C@@H](OC(C)=O)[C@H](C)O5)[C@@H](C)C[C@H](C)[C@H]4[C@]3(C)C(=O)C3=C(O)[C@@]4(CC(/C=C/C(C)=O)=C[C@H](O)[C@H]4/C=C/2C)OC3=O)C[C@]1(C)N | > 128 | 2 (≈ 1.65 µM) | > 128 | 1 (≈ 0.827 µM) | 128 (≈ 106 µM) |
| CC1(C)S[C@@H]2[C@H](NC(=O)[C@H](N)c3ccccc3)C(=O)N2[C@H]1C(=O)O [AMPICILLIN] | 2 (≈ 5.72 µM) | 0.25 (≈ 0.715 µM) | 1 (≈ 2.86 µM) | 32 (≈ 91.6 µM) | 2 (≈ 5.72 µM) |
| COC(=O)N[C@H]1[C@@H](C)O[C@@H](O[C@H]2C/C=C(\C)[C@@H]3C=C[C@@H]4[C@@H](O[C@H]5C[C@@H](O[C@H]6CC[C@@H](O[C@@H]7C[C@@H](O)[C@@H](O)[C@H](C)O7)[C@H](C)O6)[C@@H](OC(C)=O)[C@H](C)O5)[C@@H](C)C[C@H](C)[C@H]4[C@]3(C)C(=O)C3=C(O)[C@@]4(CC(/C=C/C(C)=O)=C[C@H](O)[C@H]4/C=C/2C)OC3=O)C[C@]1(C)[N+](=O)[O-] | 64 (≈ 51.6 µM) | 0.13 (≈ 0.105 µM) | 32 (≈ 25.8 µM) | 0.063 (≈ 0.0508 µM) | 32 (≈ 25.8 µM) |
| COC(=O)N[C@H]1[C@@H](C)O[C@@H](O[C@H]2C/C=C(\C)[C@@H]3C=C[C@@H]4[C@@H](O[C@H]5C[C@@H](O[C@H]6CC[C@@H](O[C@@H]7C[C@@H](O)[C@@H](O)[C@H](C)O7)[C@H](C)O6)[C@@H](OC(C)=O)[C@H](C)O5)[C@@H](C)C[C@H](C)[C@H]4[C@]3(C)C(=O)C3=C(O)[C@@]4(CC(C=O)=C[C@H](O)[C@H]4/C=C/2C)OC3=O)C[C@]1(C)N | > 128 | 2 (≈ 1.71 µM) | > 128 | 1 (≈ 0.855 µM) | > 128 |
| C/C1=C\[C@@H]2C=C[C@H](C)C[C@]23OC(=O)C(=C3O)C(=O)[C@@]2(C)[C@H]3[C@H](C=C[C@H]2/C(C)=C/C[C@@H]1O)[C@@H](O)[C@](C)(O)C[C@@H]3C | > 128 | > 128 | > 128 | > 128 | > 128 |
| COC(=O)N[C@H]1[C@@H](C)O[C@@H](O[C@H]2C/C=C(\C)[C@@H]3C=C[C@@H]4[C@@H](O[C@H]5C[C@@H](O[C@H]6C[C@@H](O)[C@@H](O[C@@H]7C[C@@H](O)[C@@H](O)[C@H](C)O7)[C@H](C)O6)[C@@H](OC(C)=O)[C@H](C)O5)[C@@H](C)C[C@H](C)[C@H]4[C@]3(C)C(=O)C3=C(O)[C@@]4(CC(/C=C/C(C)=O)=C[C@H](O)[C@H]4/C=C/2C)OC3=O)C[C@]1(C)N | > 128 | 8 (≈ 6.53 µM) | > 128 | 4 (≈ 3.26 µM) | > 128 |
| COC(=O)N[C@H]1[C@@H](C)O[C@@H](O[C@H]2C/C=C(\C)[C@@H]3C=C[C@@H]4[C@@H](O[C@H]5C[C@@H](O[C@H]6C[C@@H](O)[C@@H](O[C@@H]7C[C@@H](O)[C@@H](O)[C@H](C)O7)[C@H](C)O6)[C@@H](OC(C)=O)[C@H](C)O5)[C@@H](C)C[C@H](C)[C@H]4[C@]3(C)C(=O)C3=C(O)[C@@]4(CC(/C=C/C(C)=O)=C[C@H](O)[C@H]4/C=C/2C)OC3=O)C[C@]1(C)[N+](=O)[O-] | 128 (≈ 102 µM) | 0.5 (≈ 0.398 µM) | > 128 | 0.25 (≈ 0.199 µM) | > 128 |
| COC(=O)N[C@H]1[C@@H](C)O[C@@H](O[C@H]2C/C=C(\C)[C@@H]3C=C[C@@H]4[C@@H](O[C@H]5C[C@@H](O[C@H]6CC[C@@H](O[C@@H]7C[C@@H](O)[C@@H](O[C@H]8CC[C@@H](O)[C@H](C)O8)[C@H](C)O7)[C@H](C)O6)[C@@H](OC(C)=O)[C@H](C)O5)[C@@H](C)C[C@H](C)[C@H]4[C@]3(C)C(=O)C3=C(O)[C@@]4(CC(/C=C/C(C)=O)=C[C@H](O)[C@H]4/C=C/2C)OC3=O)C[C@]1(C)[N+](=O)[O-] | 64 (≈ 47.3 µM) | 0.03 (≈ 0.0222 µM) | 32 (≈ 23.6 µM) | 0.016 (≈ 0.0118 µM) | 32 (≈ 23.6 µM) |
| C/C1=C\[C@@H]2C=C[C@H](C)C[C@]23OC(=O)C(=C3O)C(=O)[C@@]2(C)[C@H]3[C@H](C=C[C@H]2/C(C)=C/C[C@@H]1O)[C@@H](O)[C@@H](C)C[C@@H]3C | 128 (≈ 245 µM) | 64 (≈ 122 µM) | 128 (≈ 245 µM) | 64 (≈ 122 µM) | 128 (≈ 245 µM) |
